The values that follow are results of earlier work, collected in patent publication US10426724B2, “Antihistamine compositions, combinations, and use thereof” (APTAPHARMA INC., priority 2016, dated 2019).

In this series the target is histamine H1-receptors (Homo sapiens, UniProt P35367). The following applies: from time of administration to symptomatic relief; Annals of Allergy, Asthma, & Immunology (1997), 79.
histamine H1-receptors, sequence (P35367 whole entry): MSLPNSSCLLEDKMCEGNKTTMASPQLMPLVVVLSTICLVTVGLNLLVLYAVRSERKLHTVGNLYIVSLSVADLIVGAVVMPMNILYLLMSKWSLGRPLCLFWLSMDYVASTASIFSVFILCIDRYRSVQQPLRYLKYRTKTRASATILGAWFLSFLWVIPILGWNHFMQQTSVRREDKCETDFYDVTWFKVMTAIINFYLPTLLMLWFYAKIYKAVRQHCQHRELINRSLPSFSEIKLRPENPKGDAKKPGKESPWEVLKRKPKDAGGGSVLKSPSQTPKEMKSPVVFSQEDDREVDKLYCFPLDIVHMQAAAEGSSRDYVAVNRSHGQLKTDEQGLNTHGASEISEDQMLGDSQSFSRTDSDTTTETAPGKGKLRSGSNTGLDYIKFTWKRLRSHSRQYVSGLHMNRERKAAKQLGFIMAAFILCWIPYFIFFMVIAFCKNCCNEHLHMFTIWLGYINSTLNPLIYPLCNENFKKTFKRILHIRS

In the case of `O=C(O)COCCN1CCN(C(c2ccccc2)c2ccc(Cl)cc2)CC1` (stereo not shown) [cetirizine], the “lag time before onset of action” value was “several hours”.
